Results taken from patent publication US20190167771A1, “CONTROL ANGIOGENESIS BY REGULATING PHOSPHORYLATION OF SERYL-tRNA SYNTHETASE (SerRS)” (The Scripps Research Institute, priority 2016, published 2019).

Key:
[1] = system: VEGFA; test: VEGFA mRNA induction by 12-hour hypoxia in HEK293 cells (qRT-PCR); type: cell-based, human; conditions: inhibitor 5 μM pretreatment, hypoxia 12 hours
Experimental: In FIG. 3B, HEK293 cells were transiently transfected with SerRS^WT or SerRS^S101A/S241A constructs or empty control vector. 24 hours post-transfection, VEGFA mRNA induction by 12-hour-hypoxia treatment was monitored by qRT-PCR (means±SEM from four independent experiments; *P<0.05, **P<0.01, ***P<0.005). In FIG. 3C, HEK293 cells were transiently transfected with indicated constructs. 36 hours post-transfection, VEGFA mRNA induction by 12-hour-hypoxia treatment was monitored by qRT-PCR (means±SEM from four independent experiments; *P<0.0, **P<0.001, ***P<0.0001). The protein levels of SerRS, HIF-1α, and β-actin were examined by western blot (bottom).
Transient transfections were performed using Lipofectamine 2000 (ThermoFisher Scientific).
One gram of the total RNA from each sample was reversely transcribed to cDNA by M-MLV reverse transcriptase (Promega, Madison, Wis., USA). All real-time PCR reactions were performed using the StepOnePlus Real-Time PCR system (ThermoFisher Scientific) with SYBR Select Master Mix ThermoFisher Scientific). […] The PCR reaction program started at 95° C. for 10 min, followed by 45 cycles of 95° C. for 20 seconds and 60° C. for 1 min. Each experiment was carried out in triplicate. The VEGFA gene expression was normalized to that of β-ACTIN. Statistical analyses were performed with the software SigmaPlot (version 10.0). Student's t-test was used to analyze the changes between different groups.

[2] = system: SerRS phosphorylation; test: Hypoxia-induced phosphorylation of endogenous SerRS in HEK293 cells with ATM/ATR inhibitors (IP/IB); type: cell-based, human; conditions: HEK293 pretreated with inhibitor for one hour, hypoxia 12 hours
Experimental: In FIG. 7C, HEK293 cells were pretreated with specific ATM inhibitor KU-55933 and ATR inhibitor VE-821 for one hour and then cultured under hypoxia condition for 12 hours. Cell lysates were subjected to IP with anti-SerRS antibody followed by immunoblot (IB) with anti-P-SQ antibody for detecting phosphorylated SerRS (P-SerRS). Phosphorylation of known ATM/ATR substrates (Chk1 and Chk2) was also immunoblotted.
Cells were resuspended with lysis buffer (20 mM Tris-HCl (pH 7.5), 150 mM NaCl, 1 mM of EDTA, 1 mM EGTA, 1% Triton X-100, 2.5 mM sodium pyrophosphate, 1 mM beta-glycerophosphate, 1 mM Na3VO4, and protease inhibitor cocktail) on ice. Supernatants were incubated with indicated antibodies and protein-G-conjugated agarose beads (ThermoFisher Scientific) for at least 2 h. The beads were washed five times with wash buffer (same as the lysis buffer, except that Triton X-100 was reduced from 1% to 0.1%) and then subjected to SDS-PAGE and immunoblotting analysis with indicated antibodies.

[3] = system: zebrafish embryos; test: Intersegmental vessel (ISV) branching in zebrafish embryos; type: in vivo; conditions: SerRS-MO alone, 3 dpf
Experimental: (§1) In FIG. 2A, wild type SerRS (SerRS^WT), its mutants with double substitutions of serine 101 and 241 with alanine or aspartic acid residues (SerRS^S101A/S241A and SerRS^S101D/S241D), or empty vector were transfected into HEK293 cells. The expression levels of SerRS proteins was measured by immunoblot (bottom) and VEGFA expression was determined by qRT-PCR (means±SEM from three independent experiments; ***P<0.0001). In FIGS. 2B-D, the roles of SerRS^S101A/S241A and SerRS^S101D/S241D in regulating vascular development in vivo in zebrafish were examined by co-injection of SerRS^S101A/S241A and SerRS^S101D/S241D mRNAs into one-cell-stage embryos whose endogenous SerRS was knocked down by injection of antisense morpholino (SerRS-MO) that led to abnormal high expression of Vegfa and hypervascularization (shown by short bold arrows in FIG. 2C). At 3 day post fertilization (dpf), embryos were harvested and Vegfa expression levels were measured by qRT-PCR (means±SEM, n=125-211; *P<0.01, **P<0.001) (B). The development of intersegmental vessel (ISV) at 3 dpf was examined (C) and the statistics of ISV abnormal branching rescued by SerRS^WT or mutant SerRS mRNA injections was analyzed (D; χ^2-test,* P>0.05 vs SerRS^WT, **P>0.1 vs SerRS-MO, ***P<1×10^−28 vs control-MO). In FIG. 2E, the binding affinities of SerRS^WT or SerRS^S101D/S241D with ^32P labeled DNA fragments corresponding to SerRS binding site on human VEGFA promoter were examined by EMSA. In FIG. 2F, the binding of SerRS^WT, SerRS^S101A/S241A, or SerRS^S101D/S241D on VEGFA promoter in HEK293 cells was examined by chromatin immunoprecipitation (ChIP) and qPCR (means±SEM from two independent experiments; ***P<0.0001). In FIG. 2G, the binding of endogenous SerRS on VEGFA promoter during hypoxia course was monitored by ChIP (means±SEM from three independent experiments; *P<0.05, **P<0.005 vs normal).
Transgenic Tg (Fli1a: EGFP) fish were maintained as we described before (Ref). The fish embryos were kept at 28.5° C. before and after microinjection. The antisense morpholino (MOs) targeting SerRS was injected into the yolk of 1-cell stage embryos at the dosage of 4˜5 ng per embryo. The sequence of SerRS-MO is (Ref). The SerRS-MO (5′ AGGAGAATGTGAACAAACCTGACAC 3′ (SEQ ID NO: 34)) and standard control MO (5′ CCTCTTACCTCAGTTACAATTTATA 3′ (SEQ ID NO: 35)) were purchased from Gene Tools, LLC (Philomath, Oreg. USA). After injection, embryos were incubated in E3 embryo medium supplemented with 0.003% 1-phenyl-2-thiourea (PTU) at 28.5° C. to prevent pigment formation. […] The rescue effects of different SerRS mutants on ISV development were analyzed with χ^2 test. […]

[4] = system: Vegfa; test: Vegfa mRNA by qRT-PCR in zebrafish embryos with SerRS knockdown and mRNA co-injection; type: in vivo; conditions: morpholino injected into 1-cell stage embryos, 3 dpf
Experimental: as §1
Total RNA was isolated from cells and zebrafish embryos by TRIzol Reagent (ThermoFisher Scientific). […] of the total RNA from each sample was reversely transcribed to cDNA by M-MLV reverse transcriptase (Promega, Madison, Wis., USA). All real-time PCR reactions were performed using the StepOnePlus Real-Time PCR system (ThermoFisher Scientific) with SYBR Select Master Mix ThermoFisher Scientific). […]

[5] = system: ATM/ATR kinases; test: In vitro phosphorylation of recombinant SerRS by DNA-activated HEK293 nuclear extract (p-SQ immunoblot, 32P-labelling); type: biochemical, human; conditions: recombinant his6-tagged protein, p-SQ antibody and 32P-labelling
Experimental: FIGS. 1A-G show SerRS is important for hypoxia induced VEGFA expression and is phosphorylated by ATM and ATR kinases under hypoxia at serine 101 and serine 241 residues. In FIG. 1A, HEK293 cells were transfected with shRNAs targeting SerRS (sh-SerRS) or GlyRS (sh-GlyRS), or nonspecific control shRNA (sh-Control). 48 hours post-transfection, cells were cultured under hypoxia or normoxia conditions for 12 hours. Immunoblot of cell lysates with anti-SerRS, anti-GlyRS and anti-β-actin antibodies (left). VEGFA expression levels were measured by qRT-PCR (right) and relative induction of VEGFA transcription under hypoxia were plotted (right, inset) (means±SEM. from four independent experiments; *P<0.01, **P<0.0001). […] The conserved ATM/ATR substrate motif residues are underlined. In FIG. 1C, recombinant his6-tagged human SerRS or GlyRS were incubated with γ-^32P-ATP and HEK293 cell nuclear extracts which are treated with or without double-stranded DNA oligoes mimicking DNA damage stimuli to activate ATM/ATR/DNA-PK kinases. Recombinant proteins were then purified by Ni-NTA beads and subjected to SDS-PAGE and autoradiography. In FIG. 1D, recombinant his6-tagged two human aminoacyl tRNA synthetases (AARS): TyrRS and GlyRS, wild type SerRS, or SerRS mutants with single or double substitutions of serine 101 and serine 241 with alanine (S101A, S241A, and S101A/S241A) were treated as described in FIG. 1C and phosphorylated recombinant proteins were immunoblotted with antibodies as indicated after purification by Ni-NTA beads. In FIG. 1E, HEK293 cells were cultured under hypoxia for 3, 6, and 12 hours. Phosphorylated SerRS was immunoblotted with specific anti-p-SQ antibody after SerRS proteins were immunoprecipitated (IP). Cell lysates were immunoblotted with indicated antibodies for known ATM and ATR substrates (Chk1 and P53). In FIG. 1F, Flag-tagged wild type and mutant SerRS constructs were transfected into HEK293 cells. 24 hours post-transfection, cells were treated with hypoxia stress for 12 hours and ectopically expressed SerRS was then purified by immunoprecipitation (IP) using anti-Flag antibody and immunoblot (IB) with anti-P-SQ antibody and anti-Flag antibody. In FIG. 1G, HEK293 cells were transfected with siRNA against ATM (si-ATM) or ATR (si-ATR) and treated with hypoxia stress for 12 hours. Phosphorylated SerRS were immunoblotted as described in FIG. 1E. […]
For protein purification, human SerRS and its mutant genes were subeloned into pET-20b(+) plasmid (Novagen, Darmstadt, Germany) and overexpressed in E. coli. […] The purities of the recombinant proteins were assessed by Coomassie blue staining following 4-12% Mini Gel (ThermoFisher Scientific) electrophoresis. Protein concentrations were determined using Bradford protein assay (BioRad, Hercules, Calif., USA). […]

Compound	VEGFA induction under hypoxia [1]	SerRS phosphorylation under hypoxia [2]	level of phosphorylation in vitro [5]	also measured
O=c1cc(-c2cccc3c2Sc2ccccc2S3)oc(N2CCOCC2)c1 [KU-55933, reference compound]	less but still statistically significant	blocked		
CS(=O)(=O)c1ccc(-c2cnc(N)c(C(=O)Nc3ccccc3)n2)cc1 [VE-821, reference compound]	dramatically inhibited VEGFA induction	blocked		
SerRS-MO: antisense morpholino targeting zebrafish SerRS, SEQ ID NO: 34 (antisense AGGAGAATGTGAACAAACCTGACAC; all phosphorodiamidate morpholino (PMO)) [reference compound]				zebrafish embryos with abnormal hyper-ISV branching phenotype [3]: 69.7%; increase in the mRNA level of Vegfa [4]: 4 fold
SerRS^S101A: human SerRS mutant, serine 101 substituted with alanine, SEQ ID NO: 2			decreased level of phosphorylation	
SerRS^S241A: human SerRS mutant, serine 241 substituted with alanine, SEQ ID NO: 3			almost had no phosphorylation	
